Laboratory results taken from publication PMC11945486, “TAS1R2/TAS1R3 Single-Nucleotide Polymorphisms Affect Sweet Taste Receptor Activation by Sweeteners: The SWEET Project” (Nutrients, 2025).
No end group written: not given here.

T1: human TAS1R2-I191V/TAS1R3-WT (Homo sapiens, UniProt Q7RTX0+Q8TE23, I191V)
T1 construct: expressed in transfected cells; host or cells: HEK293T-Gα16gust44
T1 sequence (Q8TE23 20-839 I191V): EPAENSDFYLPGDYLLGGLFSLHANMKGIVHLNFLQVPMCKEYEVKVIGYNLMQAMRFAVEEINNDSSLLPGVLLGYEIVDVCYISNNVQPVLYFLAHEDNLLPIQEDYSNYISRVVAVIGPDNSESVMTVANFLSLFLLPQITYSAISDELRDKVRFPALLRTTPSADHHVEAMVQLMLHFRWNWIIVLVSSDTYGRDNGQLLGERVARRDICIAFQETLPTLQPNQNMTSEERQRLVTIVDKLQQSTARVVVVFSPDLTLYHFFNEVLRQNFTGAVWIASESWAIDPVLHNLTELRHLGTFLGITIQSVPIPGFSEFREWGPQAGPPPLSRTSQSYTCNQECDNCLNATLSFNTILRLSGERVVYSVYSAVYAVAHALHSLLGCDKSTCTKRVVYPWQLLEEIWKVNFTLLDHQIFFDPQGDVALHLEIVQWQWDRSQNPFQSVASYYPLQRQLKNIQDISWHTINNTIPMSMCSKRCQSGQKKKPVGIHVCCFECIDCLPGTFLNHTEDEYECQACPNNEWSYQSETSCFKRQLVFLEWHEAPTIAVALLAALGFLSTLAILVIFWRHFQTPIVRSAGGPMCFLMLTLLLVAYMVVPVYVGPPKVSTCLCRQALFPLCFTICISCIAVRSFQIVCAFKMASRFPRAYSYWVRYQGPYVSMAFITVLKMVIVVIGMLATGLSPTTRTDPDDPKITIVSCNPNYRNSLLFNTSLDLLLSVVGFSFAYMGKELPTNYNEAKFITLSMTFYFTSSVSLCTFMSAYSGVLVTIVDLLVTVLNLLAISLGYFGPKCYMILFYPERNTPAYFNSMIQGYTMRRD
T1 sequence (Q7RTX0 21-852): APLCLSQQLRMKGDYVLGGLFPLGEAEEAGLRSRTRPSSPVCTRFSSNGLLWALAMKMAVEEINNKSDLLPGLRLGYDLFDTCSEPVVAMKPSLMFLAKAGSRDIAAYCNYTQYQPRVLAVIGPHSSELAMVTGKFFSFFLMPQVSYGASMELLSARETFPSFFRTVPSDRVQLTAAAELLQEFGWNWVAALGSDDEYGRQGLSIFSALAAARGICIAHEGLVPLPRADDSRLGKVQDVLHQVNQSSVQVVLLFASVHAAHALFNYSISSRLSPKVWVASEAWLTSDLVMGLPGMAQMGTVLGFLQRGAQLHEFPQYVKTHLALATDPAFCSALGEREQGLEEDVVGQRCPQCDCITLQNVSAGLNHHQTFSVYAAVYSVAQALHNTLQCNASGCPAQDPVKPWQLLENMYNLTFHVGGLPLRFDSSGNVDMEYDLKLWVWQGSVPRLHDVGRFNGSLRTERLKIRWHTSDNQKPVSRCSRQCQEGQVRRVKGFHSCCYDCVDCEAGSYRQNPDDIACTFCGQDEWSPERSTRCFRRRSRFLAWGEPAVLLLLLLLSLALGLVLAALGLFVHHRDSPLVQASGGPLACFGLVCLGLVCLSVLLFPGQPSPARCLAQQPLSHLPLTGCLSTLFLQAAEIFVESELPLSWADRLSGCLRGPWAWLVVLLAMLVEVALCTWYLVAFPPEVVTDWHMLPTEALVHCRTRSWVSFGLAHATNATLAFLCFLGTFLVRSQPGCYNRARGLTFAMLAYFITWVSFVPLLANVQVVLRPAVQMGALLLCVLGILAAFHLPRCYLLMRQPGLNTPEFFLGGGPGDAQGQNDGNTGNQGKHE


Target: T1, human TAS1R2-I191V/TAS1R3-WT
Experiment: Calcium mobilisation assay, TAS1R2 variant I191V with TAS1R3-WT
Format: cell-based
Details: for Max ΔF/F0: maximal signal amplitude
Text: The coding sequences for TAS1R2 and TAS1R3 were commercially synthesised, and the human codon was optimised for expression in human cells. The coding sequences of human TAS1R2 and TAS1R3 were subcloned and inserted into the mammalian expression vectors pcDNA6/myc-HisA and pcDNA4/myc-HisA (Invitrogen; Thermo Fisher Scientific; Illkirch, France) between the EcoRI and NotI restriction sites, generating the plasmids pcDNA6-TAS1R2 and pcDNA4-TAS1R3, respectively. To increase protein expression in mammalian cells, an upstream start codon was used, which was a sequence called MAX, corresponding to the QBI SP163 element also described in pcDNA4-HisMax (Invitrogen; Thermo Fisher Scientific; Illkirch, France). To measure the expression level of the receptor by immunohistochemistry, we used the FLAG sequence ([…]) in the C-terminal position, which encodes the FLAG tag epitope. SNP variants of TAS1R2 and TAS1R3 were constructed based on […], respectively, using site-directed mutagenesis (Genewiz; Leipzig, Germany).
The HEK293T cells were kindly provided by Jay P. Slack (Givaudan Flavors Corporation; Cincinnati, OH, USA). HEK293T cells stably transfected with Gα16gust44 [43, 67] were seeded in poly-D-lysine-coated clear-bottom black 96-well plates (0.35 × 10^5 cells/well) in high-glucose DMEM supplemented with 2 mM GlutaMAX, 10% dialysed foetal bovine serum with penicillin/streptomycin and G418 (400 μg/mL) at 37 °C and 6.3% CO2 in a humidified atmosphere as previously reported. […] As a negative control, HEK293T cells were mock-transfected with the empty expression vector. After a further 24 h of incubation, the HEK293T cells were washed with C1 buffer (130 mM NaCl, 5 mM KCl, 10 mM HEPES pH 7.4 and 2 mM CaCl2). The 96-well plates containing the cells were then stimulated with sweet-tasting compounds. […] Different concentration ranges were tested depending on the sweet compound injected. The Ca^2+ changes were expressed as fractional changes in fluorescent light intensity: ΔF/F = (F − F0)/F0, where F was the fluorescent light intensity at each point, and F0 was the value of emitted fluorescent light prior to stimulus application. To calculate dose–response relationships, the changes in fluorescence upon stimulus application were averaged, mock-subtracted and baseline-corrected. The dose–response data obtained were adjusted using a 4-parameter logistic equation. The half-maximal effective concentrations (EC50 values) and maximal signal amplitudes were calculated using SigmaPlot software (version 15.0) (Systat Software; San Jose, CA, USA).
For in vitro calcium mobilisation assay performed on hTAS1R2-SNPs, hTAS1R3-SNPs and mTAS1R3-I60T, 6 to 7 concentrations were tested for each sweet compound, plus buffer alone. All concentration–receptor combinations were measured in duplicate, and each experiment was repeated at least 4 times (8 wells/concentration). Results were expressed for each concentration as ΔF/F mean ± SEM and represented as dose–response curves.

EC50 [µM] | R1 = Variant EC50/WT EC50 | Max ΔF/F0 | Molecule
492 ± 30 | 0.7 | 0.27 ± 0.01 | CC1=CC(=O)NS(=O)(=O)O1 [Acesulfame K, acesulfame K]
109 ± 4.6 | 1.4 | 0.73 ± 0.01 | COc1ccc(CCC(=O)c2c(O)cc(O[C@@H]3O[C@H](CO)[C@@H](O)[C@H](O)[C@H]3O[C@@H]3O[C@@H](C)[C@H](O)[C@@H](O)[C@H]3O)cc2O)cc1O [NHDC, neohesperidin dihydrochalcone]
0.84 ± 0.08 | 1.0 | 0.64 ± 0.02 | COC(=O)[C@H](Cc1ccccc1)NC(=O)[C@H](CC(=O)O)NCCC(C)(C)C [Neotame]
27.9 ± 0.5 | 1.6 | 1.27 ± 0.01 | C=C(C)[C@@H]1CC=C(/C=N/O)CC1 [Perillartine, perillartine]
21 ± 0.4 | 1.2 | 1.10 ± 0.01 | C=C1C[C@@]23CC[C@H]4[C@@](C)(CCC[C@@]4(C)C(=O)O[C@@H]4O[C@H](CO)[C@@H](O)[C@H](O[C@@H]5O[C@H](CO)[C@@H](O)[C@H](O)[C@H]5O)[C@H]4O[C@@H]4O[C@H](CO)[C@@H](O)[C@H](O)[C@H]4O)[C@@H]2CC[C@]1(O[C@@H]1O[C@H](CO)[C@@H](O)[C@H](O[C@@H]2O[C@H](CO)[C@@H](O)[C@H](O)[C@H]2O)[C@H]1O[C@@H]1O[C@H](CO)[C@@H](O)[C@H](O)[C@H]1O)C3 [Rebaudioside M, rebaudioside M]
87 ± 7 | 1.0 | 0.52 ± 0.02 | OC[C@H]1O[C@H](O[C@]2(CCl)O[C@H](CCl)[C@@H](O)[C@@H]2O)[C@H](O)[C@@H](O)[C@H]1Cl [Sucralose]
– | 1.7 | 1.12 ± 0.02 | brazzein (QDKCKKVYENYPVSKCQLANQCNYDCKLDKHARSGECFYDEKRNLQCICDYCEY; ends and bridges not checked; cysteine pairing not given here; UniProt P56552 1-54, looked up) [sweet-tasting protein obtained by recombinant production using the yeast Pichia pastoris]
– | 1.0 | 0.34 ± 0.02 | thaumatin
7.7 ± 0.9 | – | – | thaumatin (protein, Eight disulfides, sweet-tasting plant protein, E957) ATFEIVNRCSYTVWAAASKGDAALDAGGRQLNSGESWTINVEPGTKGGKIWARTDCYFDDSGSGICKTGDCGGLLRCKRFGRPPTTLAEFSLNQYGKDYIDISNIKGFNVPMDFSPTTRGCRGVRCAADIVGQCPAKLKAPGGGCNDACTVFQTSEYCCTTGKCGPTEYSRFFKRLCPDAFSYVLDKPTTVTCPGSSNYRVTFCPTA

Molecule | EC50 [µM] | R1 = Variant EC50/WT EC50 | Max ΔF/F0
O=S(=O)(O)NC1CCCCC1 [Cyclamate, cyclamate] | 2020 ± 31 | – | –
C[C@H](CC[C@@H](O[C@@H]1O[C@H](CO[C@@H]2O[C@H](CO)[C@@H](O)[C@H](O)[C@H]2O)[C@@H](O)[C@H](O)[C@H]1O[C@@H]1O[C@H](CO)[C@@H](O)[C@H](O)[C@H]1O)C(C)(C)O)[C@H]1CC[C@@]2(C)[C@@H]3CC=C4[C@@H](CC[C@H](O[C@@H]5O[C@H](CO[C@@H]6O[C@H](CO)[C@@H](O)[C@H](O)[C@H]6O)[C@@H](O)[C@H](O)[C@H]5O)C4(C)C)[C@]3(C)[C@H](O)C[C@]12C [Mogroside V, mogroside V] | 19.2 ± 1.7 | 1.1 | 1.33 ± 0.04
